Biological target: human cardiac Na+ channel alpha subunit (SCN5A, hH1) (Homo sapiens, UniProt Q14524)
Assay: whole-cell patch clamp, use-dependent block at […] external
Assay type: cell-based
Conditions: read-out: % use-dependent block at 10 μM

human cardiac Na+ channel alpha subunit (SCN5A, hH1), sequence (Q14524 whole entry): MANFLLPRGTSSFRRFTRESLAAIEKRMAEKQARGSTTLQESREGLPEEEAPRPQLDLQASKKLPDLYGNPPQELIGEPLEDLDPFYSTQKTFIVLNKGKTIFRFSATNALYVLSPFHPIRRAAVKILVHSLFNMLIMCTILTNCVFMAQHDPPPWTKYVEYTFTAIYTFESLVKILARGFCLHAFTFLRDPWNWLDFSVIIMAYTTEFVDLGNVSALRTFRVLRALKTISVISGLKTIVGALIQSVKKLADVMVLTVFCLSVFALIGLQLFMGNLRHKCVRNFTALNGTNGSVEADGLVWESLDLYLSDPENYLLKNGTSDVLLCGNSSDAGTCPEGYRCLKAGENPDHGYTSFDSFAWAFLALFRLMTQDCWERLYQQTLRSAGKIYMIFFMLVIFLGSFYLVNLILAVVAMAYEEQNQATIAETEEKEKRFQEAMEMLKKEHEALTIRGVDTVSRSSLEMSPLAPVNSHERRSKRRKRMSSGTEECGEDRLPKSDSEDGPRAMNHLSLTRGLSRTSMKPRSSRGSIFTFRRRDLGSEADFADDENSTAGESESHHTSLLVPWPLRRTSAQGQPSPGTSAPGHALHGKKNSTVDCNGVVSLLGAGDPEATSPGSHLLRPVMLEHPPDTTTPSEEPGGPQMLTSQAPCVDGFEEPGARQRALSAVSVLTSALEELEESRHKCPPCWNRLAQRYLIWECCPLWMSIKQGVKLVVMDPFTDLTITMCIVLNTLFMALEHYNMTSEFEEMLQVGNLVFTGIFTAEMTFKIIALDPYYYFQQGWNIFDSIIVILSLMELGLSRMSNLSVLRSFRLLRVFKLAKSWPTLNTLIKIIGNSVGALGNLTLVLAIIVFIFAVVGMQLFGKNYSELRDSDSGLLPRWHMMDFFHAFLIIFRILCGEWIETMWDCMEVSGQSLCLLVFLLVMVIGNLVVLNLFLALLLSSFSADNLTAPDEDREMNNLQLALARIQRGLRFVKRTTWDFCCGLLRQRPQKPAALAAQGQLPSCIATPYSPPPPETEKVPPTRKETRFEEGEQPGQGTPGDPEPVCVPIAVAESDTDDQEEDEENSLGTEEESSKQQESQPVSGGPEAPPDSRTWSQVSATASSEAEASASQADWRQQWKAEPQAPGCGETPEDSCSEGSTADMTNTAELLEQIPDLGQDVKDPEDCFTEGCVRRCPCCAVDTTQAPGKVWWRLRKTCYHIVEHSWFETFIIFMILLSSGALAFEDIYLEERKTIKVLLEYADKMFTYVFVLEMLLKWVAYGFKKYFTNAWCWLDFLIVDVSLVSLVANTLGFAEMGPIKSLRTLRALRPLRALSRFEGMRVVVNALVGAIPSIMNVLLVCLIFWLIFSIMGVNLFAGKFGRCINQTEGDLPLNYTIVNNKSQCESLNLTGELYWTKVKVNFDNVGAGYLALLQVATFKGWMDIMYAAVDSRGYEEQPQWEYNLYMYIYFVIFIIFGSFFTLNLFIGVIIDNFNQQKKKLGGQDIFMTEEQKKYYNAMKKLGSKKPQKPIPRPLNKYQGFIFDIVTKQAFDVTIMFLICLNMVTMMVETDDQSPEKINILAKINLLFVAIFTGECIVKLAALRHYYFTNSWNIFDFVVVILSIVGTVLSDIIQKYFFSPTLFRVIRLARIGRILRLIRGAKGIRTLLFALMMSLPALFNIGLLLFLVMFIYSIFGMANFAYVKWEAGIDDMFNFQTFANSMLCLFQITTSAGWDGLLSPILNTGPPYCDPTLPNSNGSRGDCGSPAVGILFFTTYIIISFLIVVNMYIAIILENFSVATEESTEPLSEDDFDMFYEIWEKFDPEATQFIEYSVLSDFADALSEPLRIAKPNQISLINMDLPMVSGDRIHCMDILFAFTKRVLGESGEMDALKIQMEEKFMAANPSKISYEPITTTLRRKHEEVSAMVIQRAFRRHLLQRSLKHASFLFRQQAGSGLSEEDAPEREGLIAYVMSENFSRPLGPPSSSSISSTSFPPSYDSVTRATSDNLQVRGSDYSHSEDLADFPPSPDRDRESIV
human cardiac Na+ channel alpha subunit (SCN5A, hH1), sequence (Q07699 19-218 partner): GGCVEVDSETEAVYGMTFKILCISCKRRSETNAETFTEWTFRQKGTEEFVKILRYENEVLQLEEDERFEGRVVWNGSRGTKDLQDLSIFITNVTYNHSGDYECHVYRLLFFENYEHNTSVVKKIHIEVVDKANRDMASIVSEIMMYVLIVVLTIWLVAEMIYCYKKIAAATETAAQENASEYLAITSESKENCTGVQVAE

O=C(NCC1CCCCN1)c1cc(OCC(F)(F)F)ccc1OCC(F)(F)F (stereo not shown) [flecainide]
inhibition at 10 µM: 67.3 ± 3.5%
